In publication PMC6934184, “Selective DNA-PKcs inhibition extends the therapeutic index of localized radiotherapy and chemotherapy” (The Journal of Clinical Investigation, 2019):

Biological target: T1, CDK1/cyclin B (Homo sapiens, UniProt P06493)
T1 construct: purchased Thermo Fisher Scientific (Life Technologies) SelectScreen
Assay: SelectScreen Z'LYTE
Assay type: biochemical
Procedure, shortened: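 Percent values come from Thermo SelectScreen profiling of NU5455, combining activity and binding assays. CSF1R was run in Z'LYTE format at Km app ATP, and CAMK1 in Adapta format with ATP listed at 10.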

T1 sequence (P06493 whole entry): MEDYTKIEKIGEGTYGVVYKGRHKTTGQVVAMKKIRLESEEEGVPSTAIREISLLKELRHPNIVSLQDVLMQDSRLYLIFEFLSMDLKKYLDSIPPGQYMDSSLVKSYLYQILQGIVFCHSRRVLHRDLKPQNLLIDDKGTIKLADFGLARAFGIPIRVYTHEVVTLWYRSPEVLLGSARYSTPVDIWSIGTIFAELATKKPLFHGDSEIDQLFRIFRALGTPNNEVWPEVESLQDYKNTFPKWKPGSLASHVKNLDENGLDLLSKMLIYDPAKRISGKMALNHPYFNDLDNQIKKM
T1 sequence (P14635 whole entry partner): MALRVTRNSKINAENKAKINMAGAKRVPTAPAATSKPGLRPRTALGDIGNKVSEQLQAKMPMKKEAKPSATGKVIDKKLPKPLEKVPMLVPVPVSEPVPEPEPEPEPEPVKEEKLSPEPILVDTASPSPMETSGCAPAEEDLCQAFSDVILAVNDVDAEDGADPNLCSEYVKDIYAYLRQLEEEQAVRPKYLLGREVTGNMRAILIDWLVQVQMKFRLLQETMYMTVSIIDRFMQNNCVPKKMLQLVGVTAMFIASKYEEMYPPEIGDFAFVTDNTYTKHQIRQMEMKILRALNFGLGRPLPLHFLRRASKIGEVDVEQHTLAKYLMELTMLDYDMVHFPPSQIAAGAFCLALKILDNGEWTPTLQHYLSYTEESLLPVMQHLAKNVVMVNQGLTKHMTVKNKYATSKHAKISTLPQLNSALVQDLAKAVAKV

CN(C(=O)CN1CCOCC1)c1ccc2sc3c(-c4cccc5c(=O)cc(N6CC7CCC(C6)O7)oc45)cccc3c2c1 [NU5455]
inhibition at 1 µM: 1.6%
